Data: PubChem BioAssay AID2060895 (Molecular Pharmacology Branch, DTP, NCI, 2025)

Test system: PDC 899932-113-R3-J6 complex spheroid viability
Assay: Anticancer human tumor 899932-113-R3-J6-PDC patient-derived melanoma cell line growth inhibition [RAS]
Conditions: for IC50: curve of first compound; for viability, T/C: stronger effect = lower value
Summary of the method: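 Tumour cells grown as complex spheroids with HUVEC endothelial cells and mesenchymal stem cells, treated with RAS pathway inhibitor combinations. Each agent spans half-log steps from near clinical Cmax, or 10 microM where Cmax is unknown.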

[1] = second compound 0.000949 µM, first compound 0.0316 µM
[2] = second compound 0.000949 µM, first compound 0.1 µM
[3] = second compound 0.000949 µM, first compound 0.316 µM
[4] = second compound 0.000949 µM, first compound 1 µM
[5] = second compound 0.003 µM, first compound 0.0316 µM
[6] = second compound 0.003 µM, first compound 0.1 µM
[7] = second compound 0.003 µM, first compound 0.316 µM
[8] = second compound 0.003 µM, first compound 1 µM
[9] = second compound 0.00949 µM, first compound 0.0316 µM
[10] = second compound 0.00949 µM, first compound 0.1 µM
[11] = second compound 0.00949 µM, first compound 0.316 µM
[12] = second compound 0.00949 µM, first compound 1 µM
[13] = second compound 0.03 µM, first compound 0.0316 µM
[14] = second compound 0.03 µM, first compound 0.1 µM
[15] = second compound 0.03 µM, first compound 0.316 µM
[16] = second compound 0.03 µM, first compound 1 µM
[17] = second compound 0.0949 µM, first compound 0.0316 µM
[18] = second compound 0.0949 µM, first compound 0.1 µM
[19] = second compound 0.0949 µM, first compound 0.316 µM
[20] = second compound 0.0949 µM, first compound 1 µM
[21] = second compound 0.3 µM, first compound 0.0316 µM
[22] = second compound 0.3 µM, first compound 0.1 µM
[23] = second compound 0.3 µM, first compound 0.316 µM
[24] = second compound 0.3 µM, first compound 1 µM
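For viability, T/C in this document: spheroids exposed to agents for seven days before readout; 100% = DMSO vehicle control wells.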

CC(=O)OC12COC1CC(O)C1(C)C(=O)C(O)C3=C(C)C(OC(=O)C(O)C(NC(=O)OC(C)(C)C)c4ccccc4)CC(O)(C(OC(=O)c4ccccc4)C21)C3(C)C (centres undefined) + CCn1c(-c2cccnc2C(C)OC)c2c3cc(ccc31)N1CCOC(CC(NC(=O)C(C(C)C)N(C)C(=O)C3(F)CCN(C(=O)C#CC(C)(C)N(C)C)CC3)C(=O)N3CCCC(N3)C(=O)OCC(C)(C)C2)C1
IC50 (second compound 0.000949 µM): < 31.6 nM
IC50 (second compound 0.003 µM): < 31.6 nM
IC50 (second compound 0.00949 µM): < 31.6 nM
IC50 (second compound 0.03 µM): < 31.6 nM
IC50 (second compound 0.0949 µM): < 31.6 nM
IC50 (second compound 0.3 µM): < 31.6 nM
viability, T/C [1]: 31.4%
viability, T/C [2]: 34.3%
viability, T/C [3]: 33%
viability, T/C [4]: 45.6%
viability, T/C (second compound 0.000949 µM, first compound 3.16 µM): 60.8%
viability, T/C (second compound 0.000949 µM, first compound 10 µM): 70.1%
viability, T/C [5]: 29.2%
viability, T/C [6]: 37.1%
viability, T/C [7]: 36.8%
viability, T/C [8]: 39.7%
viability, T/C (second compound 0.003 µM, first compound 3.16 µM): 58.7%
viability, T/C (second compound 0.003 µM, first compound 10 µM): 68.9%
viability, T/C [9]: 33.8%
viability, T/C [10]: 36.6%
viability, T/C [11]: 35.1%
viability, T/C [12]: 48.4%
viability, T/C (second compound 0.00949 µM, first compound 3.16 µM): 61%
viability, T/C (second compound 0.00949 µM, first compound 10 µM): 61%
viability, T/C [13]: 34.9%
viability, T/C [14]: 38%
viability, T/C [15]: 32.9%
viability, T/C [16]: 41.7%
viability, T/C (second compound 0.03 µM, first compound 3.16 µM): 67.3%
viability, T/C (second compound 0.03 µM, first compound 10 µM): 67.4%
viability, T/C [17]: 34.8%
viability, T/C [18]: 38.4%
viability, T/C [19]: 37.3%
viability, T/C [20]: 52.1%
viability, T/C (second compound 0.0949 µM, first compound 3.16 µM): 59.2%
viability, T/C (second compound 0.0949 µM, first compound 10 µM): 65.5%
viability, T/C [21]: 28.9%
viability, T/C [22]: 39.4%
viability, T/C [23]: 40.8%
viability, T/C [24]: 44.5%
viability, T/C (second compound 0.3 µM, first compound 3.16 µM): 64.3%
viability, T/C (second compound 0.3 µM, first compound 10 µM): 63.1%

Nc1ccn(C2OC(CO)C(O)C2(F)F)c(=O)n1 (centres undefined) + CCn1c(-c2cccnc2C(C)OC)c2c3cc(ccc31)N1CCOC(CC(NC(=O)C(C(C)C)N(C)C(=O)C3(F)CCN(C(=O)C#CC(C)(C)N(C)C)CC3)C(=O)N3CCCC(N3)C(=O)OCC(C)(C)C2)C1
IC50 (second compound 0.000949 µM): 19.8 nM
IC50 (second compound 0.003 µM): 20.7 nM
IC50 (second compound 0.00949 µM): 20.5 nM
IC50 (second compound 0.03 µM): 19.6 nM
IC50 (second compound 0.0949 µM): 20.9 nM
IC50 (second compound 0.3 µM): 18.3 nM
viability, T/C (second compound 0.000949 µM, first compound 0.00316 µM): 103%
viability, T/C (second compound 0.000949 µM, first compound 0.01 µM): 71.2%
viability, T/C [1]: 35.9%
viability, T/C [2]: 20.9%
viability, T/C [3]: 17.4%
viability, T/C [4]: 19.2%
viability, T/C (second compound 0.003 µM, first compound 0.00316 µM): 99.8%
viability, T/C (second compound 0.003 µM, first compound 0.01 µM): 74.8%
viability, T/C [5]: 36.3%
viability, T/C [6]: 17.1%
viability, T/C [7]: 15.1%
viability, T/C [8]: 17.8%
viability, T/C (second compound 0.00949 µM, first compound 0.00316 µM): 103%
viability, T/C (second compound 0.00949 µM, first compound 0.01 µM): 73.7%
viability, T/C [9]: 36.4%
viability, T/C [10]: 19.8%
viability, T/C [11]: 16.1%
viability, T/C [12]: 20.6%
viability, T/C (second compound 0.03 µM, first compound 0.00316 µM): 101%
viability, T/C (second compound 0.03 µM, first compound 0.01 µM): 70.3%
viability, T/C [13]: 36.4%
viability, T/C [14]: 19.2%
viability, T/C [15]: 19%
viability, T/C [16]: 19.8%
viability, T/C (second compound 0.0949 µM, first compound 0.00316 µM): 95.2%
viability, T/C (second compound 0.0949 µM, first compound 0.01 µM): 73.4%
viability, T/C [17]: 37.4%
viability, T/C [18]: 20.5%
viability, T/C [19]: 19.3%
viability, T/C [20]: 20.1%
viability, T/C (second compound 0.3 µM, first compound 0.00316 µM): 84.4%
viability, T/C (second compound 0.3 µM, first compound 0.01 µM): 69.4%
viability, T/C [21]: 32.7%
viability, T/C [22]: 20.8%
viability, T/C [23]: 21.6%
viability, T/C [24]: 25.9%
